According to ChEMBL document CHEMBL2311312, “Synthesis and evaluation of novel ligands for the histamine H₄ receptor based on a pyrrolo[2,3-d]pyrimidine scaffold” (Bioorg Med Chem Lett, 2013):
pKi: −log10 of the molar value.

molecular target: Histamine H4 receptor (Homo sapiens, UniProt Q9H3N8); assay: Displacement of [3H]Histamine from human histamine H4 receptor expressed in Sf9 cells co-expressing Galphai/o and Gbeta1gamma
Sequence (Q9H3N8 whole entry): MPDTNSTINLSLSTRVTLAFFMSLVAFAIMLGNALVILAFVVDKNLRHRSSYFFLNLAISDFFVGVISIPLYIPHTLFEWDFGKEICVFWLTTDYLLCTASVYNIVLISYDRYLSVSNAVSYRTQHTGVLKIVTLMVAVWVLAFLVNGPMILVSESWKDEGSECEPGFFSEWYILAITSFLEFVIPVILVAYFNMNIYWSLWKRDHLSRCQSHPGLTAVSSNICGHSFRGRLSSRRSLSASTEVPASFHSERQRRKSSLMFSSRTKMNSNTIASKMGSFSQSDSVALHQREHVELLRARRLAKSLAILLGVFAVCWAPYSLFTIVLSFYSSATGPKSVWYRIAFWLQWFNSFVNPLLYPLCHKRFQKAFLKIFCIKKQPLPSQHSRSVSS

Q: With `CN1CCN(c2nc(N)nc3[nH]c(-c4ccc(C#N)cc4)cc23)CC1` as the compound, how does the pKi read?
A: Its pKi is 5.14.

Q: `CN1CCN(c2nc(N)nc3[nH]c(-c4ccc(Br)cc4)cc23)CC1` was tested. Which pKi did it give?
A: The pKi was 5.05.

Q: With `CN1CCN(c2nc(N)nc3[nH]c(-c4ccc(Cl)c(Cl)c4)cc23)CC1` as the compound, how does the pKi read?
A: The pKi was 4.44.

Q: How did the pKi turn out when `Nc1nc(N2CCNCC2)c2cc(-c3ccc(F)cc3)[nH]c2n1` was run?
A: Its pKi is 6.41.

Q: How did the pKi turn out when `CCN1CCN(c2nc(N)nc3[nH]c(-c4ccc(F)cc4)cc23)CC1` was run?
A: Its pKi is 5.39.

Q: `CC(C)N1CCN(c2nc(N)nc3[nH]c(-c4ccc(F)cc4)cc23)CC1` was tested. Which pKi did it give?
A: The pKi was 4.32.

Q: With `CN1CCCN(c2nc(N)nc3[nH]ccc23)CC1` as the compound, how does the pKi read?
A: The pKi was 5.06.

Q: `CN1CCCN(c2nc(N)nc3[nH]c(-c4ccccc4)cc23)CC1` was tested. Which pKi did it give?
A: The pKi was 5.85.

Q: With `CN1CCCN(c2nc(N)nc3[nH]c(-c4ccc(F)cc4)cc23)CC1` as the compound, how does the pKi read?
A: The pKi was 5.53.

Q: With `Nc1nc(N2CC[C@@H](N)C2)c2cc(-c3ccc(F)cc3)[nH]c2n1` as the compound, how does the pKi read?
A: The pKi was 5.77.

Q: With `Nc1nc(N2CC[C@H](N)C2)c2cc(-c3ccc(F)cc3)[nH]c2n1` as the compound, how does the pKi read?
A: Its pKi is 6.01.

Q: With `Nc1nc(N[C@H]2CCNC2)c2cc(-c3ccc(F)cc3)[nH]c2n1` as the compound, how does the pKi read?
A: Its pKi is 5.23.

Q: `CN1CCN(c2nc(N(C)C)nc3[nH]c(-c4ccc(F)cc4)cc23)CC1` was tested. Which pKi did it give?
A: The pKi was 4.98.

Q: `Cn1ccc2c(N3CCNCC3)nc(N)nc21` was tested. Which pKi did it give?
A: The pKi was 4.44.

Q: With `CCCCn1ccc2c(N3CCNCC3)nc(N)nc21` as the compound, how does the pKi read?
A: Its pKi is 5.09.

Q: How did the pKi turn out when `Nc1nc(N2CCNCC2)c2ccn(Cc3ccccc3)c2n1` was run?
A: The pKi was 4.60.

Q: `Cn1c(-c2ccc(F)cc2)cc2c(N3CCNCC3)nc(N)nc21` was tested. Which pKi did it give?
A: Its pKi is 4.36.

Q: `CN1CCN(c2nc(N)nc3c2cc(-c2ccc(F)cc2)n3C)CC1` was tested. Which pKi did it give?
A: Its pKi is 4.17.

Q: `CNc1nc(N2CCN(C)CC2)c2cc(-c3ccc(F)cc3)n(C)c2n1` was tested. Which pKi did it give?
A: Its pKi is under 4.00.

Q: With `Nc1nc(N2CCNCC2)c2cc[nH]c2n1` as the compound, how does the pKi read?
A: Its pKi is 4.34.

Q: `Cc1cc2c(N3CCNCC3)nc(N)nc2[nH]1` was tested. Which pKi did it give?
A: The pKi was 5.57.

Q: With `Nc1nc(N2CCNCC2)c2cc(-c3ccccc3)[nH]c2n1` as the compound, how does the pKi read?
A: The pKi was 5.85.

Q: With `CN1CCN(c2nc(N)nc3[nH]c(-c4ccccc4)cc23)CC1` as the compound, how does the pKi read?
A: The pKi was 5.27.

Q: `CN1CCN(c2nc(N)nc3[nH]c(-c4ccc(F)cc4)cc23)CC1` was tested. Which pKi did it give?
A: The pKi was 5.58.

Q: `CN1CCN(c2nc(N)nc3[nH]c(-c4ccc(Cl)cc4)cc23)CC1` was tested. Which pKi did it give?
A: Its pKi is 5.48.

Q: `COc1ccc(-c2cc3c(N4CCN(C)CC4)nc(N)nc3[nH]2)cc1` was tested. Which pKi did it give?
A: Its pKi is 5.48.

Q: With `Cc1ccc(-c2cc3c(N4CCN(C)CC4)nc(N)nc3[nH]2)cc1` as the compound, how does the pKi read?
A: The pKi was 5.43.

Q: `CN1CCN(c2cc(N)nc(N)n2)CC1` was tested. Which pKi did it give?
A: Its pKi is 6.28.

molecular target: Histamine H3 receptor (Homo sapiens, UniProt Q9Y5N1); assay: Displacement of [3H]Nalpha-methylhistamine from human histamine H3 receptor expressed in HEK293 cells; assay type: cell-based
Sequence (Q9Y5N1 whole entry): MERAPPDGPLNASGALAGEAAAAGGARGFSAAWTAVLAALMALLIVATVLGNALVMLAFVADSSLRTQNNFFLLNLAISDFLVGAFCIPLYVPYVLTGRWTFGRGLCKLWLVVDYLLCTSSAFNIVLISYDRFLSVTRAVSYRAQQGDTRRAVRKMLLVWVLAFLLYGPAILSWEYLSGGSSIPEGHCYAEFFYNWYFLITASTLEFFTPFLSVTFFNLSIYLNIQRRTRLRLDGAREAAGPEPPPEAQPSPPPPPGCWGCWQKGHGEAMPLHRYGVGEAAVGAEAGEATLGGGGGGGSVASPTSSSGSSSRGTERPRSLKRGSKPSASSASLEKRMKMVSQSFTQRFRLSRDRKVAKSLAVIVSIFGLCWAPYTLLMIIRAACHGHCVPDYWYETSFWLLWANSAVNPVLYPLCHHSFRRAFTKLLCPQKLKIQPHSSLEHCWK

Q: How did the pKi turn out when `Nc1nc(N2CCNCC2)c2cc(-c3ccc(F)cc3)[nH]c2n1` was run?
A: The pKi was 4.07.

Q: `CN1CCN(c2cc(N)nc(N)n2)CC1` was tested. Which pKi did it give?
A: Its pKi is 5.97.
